Assays:
[1] = compound: C1CN(CCC1(C(=O)N[C@@H](CCO)C2=CC=C(C=C2)Cl)N)C3=NC=NC4=C3C=CN4 [Capivasertib]; conditions: max 10 µM
Summary of the method: (§1)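 Plates with 1536 wells received cancer cell lines in 7.5 μl of DMEM/F12 or RPMI containing 10% FBS. After 24 hours at 37°C and 5% CO2, cells were dosed for 72 hours with final DMSO typically 0.2%, and viability was read by CellTiter-Glo 2.0 luminescence scaled between blank-well and DMSO-well means. The single-agent IC50 was taken from a logistic fit of the dose responses made with a non-linear mixed effects model, that logistic curve having two parameters.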

[2] = compound: C=CCn1c(=O)c2cnc(Nc3ccc(N4CCN(C)CC4)cc3)nc2n1-c1cccc(C(C)(C)O)n1 [AZD1775]; conditions: max 3 µM
Summary of the method: as §1

[3] = compound: CC(=O)Nc1cccc(-n2c(=O)n(C3CC3)c(=O)c3c(Nc4ccc(I)cc4F)n(C)c(=O)c(C)c32)c1 [Trametinib]; conditions: max 1 µM
Summary of the method: as §1

[4] = compound: CC(=O)c1c(C)c2cnc(Nc3ccc(N4CCNCC4)cn3)nc2n(C2CCCC2)c1=O [Palbociclib]; conditions: max 10 µM
Summary of the method: as §1

[5] = compound: CC(C)n1c(=O)n(C)c2cnc3cc(F)c(-c4ccc(OCCCN5CCCCC5)nc4)cc3c21 [AZD1390]; conditions: max 0.3 µM
Summary of the method: as §1

[6] = compound: CC1(C)CCC(CN2CCN(c3ccc(C(=O)NS(=O)(=O)c4ccc(NCC5CCOCC5)c([N+](=O)[O-])c4)c(Oc4cnc5[nH]ccc5c4)c3)CC2)=C(c2ccc(Cl)cc2)C1 [Venetoclax]; conditions: max 1 µM
Summary of the method: as §1

[7] = compound: CC1=C(C(=CC=C1)Cl)NC(=O)C2=CN=C(S2)NC3=CC(=NC(=N3)C)N4CCN(CC4)CCO [Dasatinib]; conditions: max 2 µM
Summary of the method: as §1

[8] = compound: CC1=CN2[C@@H](C1)C=NC3=CC(=C(C=C3C2=O)OC)OCCCCCOC4=C(C=C5C(=C4)N=C[C@@H]6CC(=CN6C5=O)C)OC [SG3199]; conditions: max 0.001 µM
Summary of the method: as §1

[9] = compound: CCN(CCO)CCCOc1ccc2c(Nc3cc(CC(=O)Nc4cccc(F)c4)[nH]n3)ncnc2c1 [AZD2811]; conditions: max 1 µM
Summary of the method: as §1

[10] = compound: CCc1c2c(nc3ccc(O)cc13)-c1cc3c(c(=O)n1C2)COC(=O)[C@]3(O)CC [SN-38]; conditions: max 0.3 µM
Summary of the method: as §1

[11] = compound: CN(C)CCCOc1ccc(-c2ccc3ncc4c(c3c2)n(C2CCOCC2)c(=O)n4C)cn1 [AZD0156]; conditions: max 3 µM
Summary of the method: as §1

[12] = compound: CN(CC[C@H](CSC1=CC=CC=C1)NC2=C(C=C(C=C2)S(=O)(=O)NC(=O)C3=CC=C(C=C3)N4CCC(CC4)[C@H](C5=CC=CC=C5C6=CC=C(C=C6)Cl)O)S(=O)(=O)C(F)(F)F)CCO [AZD4320]; conditions: max 1 µM
Summary of the method: as §1

[13] = compound: COc1cc(Nc2ncc3c(n2)-c2ccc(Cl)cc2C(c2c(F)cccc2OC)=NC3)ccc1C(=O)O [Alisertib]; conditions: max 10 µM
Summary of the method: as §1

[14] = compound: COc1cc2ncnc(Nc3ccc(F)c(Cl)c3)c2cc1OCCCN1CCOCC1 [Gefitinib]; conditions: max 10 µM
Summary of the method: as §1

[15] = compound: COc1cccc(OCCCN)c1-c1cc(Nc2cnc(C#N)cn2)n[nH]1 [Prexasertib]; conditions: max 1 µM
Summary of the method: as §1

[16] = compound: COc1cccc2c1C(=O)c1c(O)c3c(c(O)c1C2=O)C[C@@](O)(C(=O)CO)C[C@@H]3O[C@H]1C[C@H](N)[C@H](O)[C@H](C)O1 [Doxorubicin]; conditions: max 1 µM
Summary of the method: as §1

[17] = compound: COc1nnc2ccc(N3CCC(c4ccc(OCCN5CCN(C)C(=O)[C@H]5C)cc4)CC3)nn12 [AZD5153]; conditions: max 1 µM
Summary of the method: as §1

[18] = compound: CS(=O)(=O)CCNCc1ccc(-c2ccc3ncnc(Nc4ccc(OCc5cccc(F)c5)c(Cl)c4)c3c2)o1 [Lapatinib]; conditions: max 10 µM
Summary of the method: as §1

[19] = compound: C[C@@H](Nc1cc(F)cc(F)c1)c1cc(C(=O)N(C)C)cc2c(=O)cc(N3CCOCC3)oc12 [AZD8186]; conditions: max 3 µM
Summary of the method: as §1

[20] = compound: C[C@@H](Oc1cc(-c2cnn(C3CCNCC3)c2)cnc1N)c1c(Cl)ccc(F)c1Cl [Crizotinib]; conditions: max 10 µM
Summary of the method: as §1

[21] = compound: C[C@@H](c1ccc2nccn2c1)n1nnc2ncc(-c3cnn(C)c3)nc21 [Savolitinib]; conditions: max 1 µM
Summary of the method: as §1

[22] = compound: C[C@@H]1COCCN1C2=NC(=NC(=C2)C3(CC3)[S@](=N)(=O)C)C4=C5C=CNC5=NC=C4 [AZD6738]; conditions: max 10 µM
Summary of the method: as §1

[23] = compound: Cc1c2c(nn1C)CSCc1cc(n(C)n1)CSc1cc(c3ccccc3c1)OCCCc1c(C(=O)O)n(C)c3c-2c(Cl)ccc13 [AZD5991]; conditions: max 1 µM
Summary of the method: as §1

[24] = compound: Cc1cc2ncnn2cc1Nc1ncc2c(n1)n(C1CCOCC1)c(=O)n2C [AZD7648]; conditions: max 10 µM
Summary of the method: as §1

[25] = compound: Cc1nc(-c2cn3c(n2)-c2ccc(-c4cnn(C(C)(C)C(N)=O)c4)cc2OCC3)n(C(C)C)n1 [Taselisib]; conditions: max 10 µM
Summary of the method: as §1

[26] = compound: Cn1cnc2c(F)c(Nc3ccc(Br)cc3Cl)c(C(=O)NOCCO)cc21 [Selumetinib]; conditions: max 10 µM
Summary of the method: as §1

[27] = compound: O=C(c1cc(Cc2n[nH]c(=O)c3ccccc23)ccc1F)N1CCN(C(=O)C2CC2)CC1 [Olaparib]; conditions: max 10 µM
Summary of the method: as §1

[28] = compound: NC1(c2ccc(-c3nc4ccn5c(=O)[nH]nc5c4cc3-c3ccccc3)cc2)CCC1 [MK-2206]; conditions: max 10 µM
Summary of the method: as §1

Cell Line | IC50, cell viability 72 h [1] | IC50, cell viability 72 h [2] | IC50, cell viability 72 h [3] | IC50, cell viability 72 h [4] | IC50, cell viability 72 h [5] | IC50, cell viability 72 h [6] | IC50, cell viability 72 h [7] | IC50, cell viability 72 h [8] | IC50, cell viability 72 h [9] | IC50, cell viability 72 h [10] | IC50, cell viability 72 h [11] | IC50, cell viability 72 h [12] | IC50, cell viability 72 h [13] | IC50, cell viability 72 h [14] | IC50, cell viability 72 h [15] | IC50, cell viability 72 h [16] | IC50, cell viability 72 h [17] | IC50, cell viability 72 h [18] | IC50, cell viability 72 h [19] | IC50, cell viability 72 h [20] | IC50, cell viability 72 h [21] | IC50, cell viability 72 h [22] | IC50, cell viability 72 h [23] | IC50, cell viability 72 h [24] | IC50, cell viability 72 h [25] | IC50, cell viability 72 h [26] | IC50, cell viability 72 h [27] | IC50, cell viability 72 h [28]
KE-37 (T-Lymphoblastic Leukemia) | 1.1 µM | 129 nM | > 1000 nM | 3.85 µM | > 300 nM | > 1000 nM | > 2000 nM | > 1 nM | 20.5 nM | 1.86 nM | > 3000 nM | 28.3 nM | 0.125 µM | > 10 µM | 4.58 nM | 53.8 nM | 210 nM | 8.53 µM | > 3000 nM | 3.22 µM | > 1000 nM | 0.403 µM | 267 nM | 8.54 µM | 3.11 µM | > 10 µM | > 10 µM | 
WM793B (Melanoma) | > 10 µM | 1930 nM | 175 nM | > 10 µM | > 300 nM | > 1000 nM | > 2000 nM | > 1 nM | > 1000 nM | 22.8 nM | > 3000 nM | > 1000 nM | > 10 µM | > 10 µM | 27.8 nM | 471 nM | 493 nM | > 10 µM | > 3000 nM | > 10 µM | > 1000 nM | 3.1 µM | > 1000 nM | > 10 µM | 2.8 µM | 7.02 µM | > 10 µM | 
LN-229 (Glioblastoma) | > 10 µM | > 3000 nM | > 1000 nM | > 10 µM | > 300 nM | > 1000 nM | > 2000 nM | > 1 nM | > 1000 nM | > 300 nM | > 3000 nM | > 1000 nM | > 10 µM | > 10 µM | 70.1 nM | > 1000 nM | > 1000 nM | > 10 µM | > 3000 nM | > 10 µM | > 1000 nM | > 10 µM | > 1000 nM | > 10 µM | > 10 µM | > 10 µM | > 10 µM | > 10 µM

Reference: the supplement of paper PMC11061612
